Like-named read-outs stand apart in the source and are kept apart here.
Experiments:
Butyryl-cholinesterase = target: T1, Butyryl-cholinesterase (Equus caballus, UniProt P81908); experiment: biochemical; format: biochemical; conditions: for IC50: Ellman method, 37 °C, PBS pH 7.4, 412 nm, read-out: IC50 Value Butyrylcholinesterase
T1 construct: butyryl-cholinesterase was from equine serum; purchased Sigma-Aldrich; host or cells: equine serum
Description: (§1) HPLC-grade methanol and acetonitrile were purchased from Shanghai, China (Sinopharm Chemical Reagent Co., Ltd., Shanghai, China). Acetyl-cholinesterase was from electric eel, butyryl-cholinesterase was from equine serum, and acetylthiocholine iodide was purchased from Sigma-Aldrich (Sigma-Aldrich company, St. Louis, MO, USA). […] AB-8 macroporous resin was purchased from Yuanye (Yuanye Biochemical Technology Co., Ltd., Shanghai, China).
(§2) The Ellman method was used to determine the inhibitory activity of acetyl-cholinesterase and butyryl-cholinesterase of each monomer compound. Briefly, 150 µL of PBS buffer solution (pH = 7.4), 10 µL of the tested compound solution, and 20 µL of acetyl-cholinesterase or butyryl-cholinesterase solution (concentration of 0.2 U/mL) were transferred to a 96-well plate and placed in a gas bath constant temperature oscillator at 37 °C for 15 min. […] Then, 10 µL PBS was added to the blank group to exclude other irrelevant factors from affecting the experimental results and ensure the rationality of the experimental results. […] Inhibition Rate = (Anegative control group − Atest group/Anegative control group − Ablank group) × 100%(2)

Acetyl-cholinesterase = target: T2, Acetyl-cholinesterase (Electrophorus electricus, UniProt O42275); experiment: biochemical; format: biochemical
T2 construct: Acetyl-cholinesterase was from electric eel; purchased Sigma-Aldrich; host or cells: electric eel (natural source)
T2 sequence (O42275 24-633): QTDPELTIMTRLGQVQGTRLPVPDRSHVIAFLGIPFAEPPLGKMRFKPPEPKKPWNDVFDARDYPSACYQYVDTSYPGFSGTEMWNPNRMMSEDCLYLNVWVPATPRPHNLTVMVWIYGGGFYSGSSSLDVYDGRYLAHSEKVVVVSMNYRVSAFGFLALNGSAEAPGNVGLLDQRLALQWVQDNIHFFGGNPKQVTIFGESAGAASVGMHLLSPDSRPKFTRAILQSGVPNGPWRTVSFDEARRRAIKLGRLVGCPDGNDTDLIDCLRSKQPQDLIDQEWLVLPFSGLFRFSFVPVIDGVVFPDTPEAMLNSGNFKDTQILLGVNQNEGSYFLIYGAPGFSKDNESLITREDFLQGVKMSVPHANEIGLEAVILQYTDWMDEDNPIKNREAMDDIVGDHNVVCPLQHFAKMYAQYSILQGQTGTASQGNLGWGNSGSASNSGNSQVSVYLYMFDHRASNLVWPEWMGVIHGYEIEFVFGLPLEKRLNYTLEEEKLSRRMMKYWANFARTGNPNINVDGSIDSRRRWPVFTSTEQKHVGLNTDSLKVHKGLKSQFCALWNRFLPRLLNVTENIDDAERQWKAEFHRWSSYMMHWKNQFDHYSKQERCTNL
Description: as §1, §2

[1] = Ellman method, 37 °C, PBS pH 7.4, 412 nm, read-out: IC50 Value Acetylcholinesterase

T1 sequence (P81908 whole entry): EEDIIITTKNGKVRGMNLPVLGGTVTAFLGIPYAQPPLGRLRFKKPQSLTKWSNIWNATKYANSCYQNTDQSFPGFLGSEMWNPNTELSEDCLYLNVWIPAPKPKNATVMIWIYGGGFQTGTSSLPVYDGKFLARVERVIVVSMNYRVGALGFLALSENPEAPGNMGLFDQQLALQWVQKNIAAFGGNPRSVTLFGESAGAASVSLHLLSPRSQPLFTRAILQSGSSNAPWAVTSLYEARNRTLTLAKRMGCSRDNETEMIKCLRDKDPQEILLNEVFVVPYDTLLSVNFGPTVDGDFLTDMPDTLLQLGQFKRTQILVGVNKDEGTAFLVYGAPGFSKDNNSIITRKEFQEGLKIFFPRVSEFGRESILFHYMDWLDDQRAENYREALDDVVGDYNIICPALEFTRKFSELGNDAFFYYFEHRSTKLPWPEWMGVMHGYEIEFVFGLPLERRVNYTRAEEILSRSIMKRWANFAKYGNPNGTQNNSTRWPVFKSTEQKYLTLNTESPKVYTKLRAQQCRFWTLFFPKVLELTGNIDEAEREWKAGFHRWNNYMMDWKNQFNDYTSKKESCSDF

SMILES: C=CC1C2C[C@H]3c4[nH]c5ccccc5c4CCN3C(=O)C2=CO[C@H]1O[C@H]1O[C@H](CO)[C@@H](O)[C@H](O)[C@H]1O (stereo partly drawn) [Compound 2, vincosamide]
- IC50 (Butyryl-cholinesterase): 23.18 ± 0.14 µM
- IC50 (Acetyl-cholinesterase): 12.4 ± 0.86 µM

SMILES: COC(=O)C1=COC(OC2OC(CO)C(O)C(O)C2O)C2C(O)CN3CCc4c([nH]c5ccccc45)C3CC12 (stereo not drawn) [Compound 5, 3α-dihydrocadambine]
- IC50 (Butyryl-cholinesterase): 33.3 ± 0.51 µM
- IC50 (Acetyl-cholinesterase; [1]): 37 ± 1.57 µM

SMILES: COC(=O)C1=COC(OC2OC(CO)C(O)C(O)C2O)C2C3CN4CCc5c([nH]c6ccccc56)C4(CC12)O3 (stereo not drawn) [Compound 4, cadambine]
- IC50 (Butyryl-cholinesterase): 30.7 ± 0.69 µM
- IC50 (Acetyl-cholinesterase): 26.1 ± 2.12 µM

SMILES: C=CC1C2C[C@@H]3c4[nH]c5ccccc5c4CCN3C(=O)C2=CO[C@H]1O[C@H]1O[C@H](CO)[C@@H](O)[C@H](O)[C@H]1O (stereo partly drawn) [Compound 3, strictosamide]
- IC50 (Butyryl-cholinesterase): 6.47 ± 0.72 µM
- IC50 (Acetyl-cholinesterase): 46.6 ± 0.58 µM

SMILES: C=C[C@H]1C(O[C@H]2O[C@H](CO)[C@@H](O)[C@H](O)[C@H]2O)OC=C2C(=O)N3CC[C@]4(C(=O)Nc5ccccc54)[C@H]3C[C@H]21 (stereo partly drawn) [Compound 1, 7-epi-javaniside]
- IC50 (Butyryl-cholinesterase): 2.13 ± 0.1 µM
- butyryl-cholinesterase inhibitory activity (in words) (Butyryl-cholinesterase; qualitative statement): close to that of the positive drug
- IC50 (Acetyl-cholinesterase; [1]): 2.85 ± 0.5 µM
- acetyl-cholinesterase inhibitory activity (in words) (Acetyl-cholinesterase; qualitative statement): close to that of the positive drug
